Source: patent US20180344748A1, “METHODS AND COMPOSITIONS FOR PREVENTING OR TREATING CHRONIC INFLAMMATORY DISEASES” (ENTERIN LABORATORIES, INC., priority 2017, published 2018)

Assays:
Type in all cases: cell-based
human neutrophils = experiment: Chemotaxis assay, human neutrophils; details: bell shaped concentration curve; FIG. 3A
Experimental: (§1) FIGS. 3A-F: α-Synuclein is a chemoattractant dependent on CD11b. Assays were conducted as described in the examples below. The average of 3 independent assays for each sample is presented. The concentration of the α-synuclein aggregate is in terms of the monomer. A positive control, FMLP, is noted in black. NAc 1-21, the N-acetylated peptide corresponding to the first 21 amino acids of α-synuclein; 1-25, a peptide corresponding to the first 25 amino acids. FIG. 3A=Human Neutrophils; FIG. 3B=Human monocytes; FIGS. 3C and 3D=Representative photos of the cellular response. FIG. 3E=Neutrophils from CD11b −/− or wild type mice (0.5×10^6/ml), assayed as described in the examples. FIG. 3F=Human neutrophils incubated in the presence of anti-CD11b antibody or control (50 μg/ml each). CM, control media (negative control)
(§2) Chemotaxis, or the movement of cells in response to a chemical stimulus, is routinely measured in a Boyden chamber. In this apparatus, immune cells are attached to one side of a membrane containing pores through which the immune cells can traffic. On the other side of the membrane a chemoattractant is introduced. Over the course of several hours the immune cells migrate from the side of the membrane on which they were initially placed to the side exposed to the chemoattractant. […] After 24 hours the number of immune cells that have migrated to towards the chemoattractant are counted. […]

human monocytes = experiment: Chemotaxis assay, human monocytes; details: bell shaped concentration curve; FIG. 3B
Experimental: as §1, §2

[1] = system: human monocyte derived dendritic cells; experiment: Dendritic cell maturation, flow cytometry of surface markers; details: 10 μM, 48 h, FIG. 4
Experimental: FIG. 4: Human monocyte derived dendritic cells were incubated at 5×10^5/ml in the presence of recombinant monomeric or aggregated alpha-synuclein, and the NAc 1-21 amino terminal peptide of alpha-synuclein (each at a final concentration of 10 μM) for 48 h before they were immunostained and analyzed by flow cytometry for the expression of the indicated surface molecules. E. coli lipopolysaccharide (LPS) (100 ng/ml) was included as a positive control. Shown are the results of one experiment representative of three. The ordinate of […].
Chemotaxis assays followed published procedures. De et al. (2000). Neutrophils and monocytes were isolated from the blood of healthy human donors as described. Id. Recombinant human α-synuclein (lot #20162050, endotoxin contamination 18.6 EU/mg) was from Proteos, Inc. via the Michael J. Fox Foundation. The α-synuclein aggregates were made following a protocol provided by Proteos. […]
Human monocyte derived dendritic cells were exposed for 2 days to α-synuclein monomer, aggregate, and N—Ac 1-21 peptide and then analyzed by flow cytometry to measure the extent of phenotypic maturation, using CD80, CD83, CD86, HLA-ABC, and HLA-DR as determinants (FIG. 4).

N-acetylated peptide: the N-acetylated peptide corresponding to the first 21 amino acids of α-synuclein
chemotactic activity towards human neutrophils (human neutrophils): retained the chemotactic activity of the full-length protein
chemotactic activity towards human monocytes (human monocytes): retained the chemotactic activity of the full-length protein
dendritic cell maturation (CD80, CD83, CD86, HLA-ABC, HLA-DR) [1]: did not

peptide, extending to residue 25: a peptide corresponding to the first 25 amino acids of α-synuclein, lacking the N-acetyl moiety
chemotactic activity towards human neutrophils (human neutrophils): inactive
chemotactic activity towards human monocytes (human monocytes): inactive
